Columns and labels:
[1] = biological target: TEAD2 (Homo sapiens, UniProt Q15562); assay: Inhibition of TEAD2 auto-palmitoylation in vitro
[2] = biological target: TEAD4 (Homo sapiens, UniProt Q15561); assay: Inhibition of TEAD4 auto-palmitoylation in vitro
Chain of TEAD4 (Q15561 whole entry, species assumed): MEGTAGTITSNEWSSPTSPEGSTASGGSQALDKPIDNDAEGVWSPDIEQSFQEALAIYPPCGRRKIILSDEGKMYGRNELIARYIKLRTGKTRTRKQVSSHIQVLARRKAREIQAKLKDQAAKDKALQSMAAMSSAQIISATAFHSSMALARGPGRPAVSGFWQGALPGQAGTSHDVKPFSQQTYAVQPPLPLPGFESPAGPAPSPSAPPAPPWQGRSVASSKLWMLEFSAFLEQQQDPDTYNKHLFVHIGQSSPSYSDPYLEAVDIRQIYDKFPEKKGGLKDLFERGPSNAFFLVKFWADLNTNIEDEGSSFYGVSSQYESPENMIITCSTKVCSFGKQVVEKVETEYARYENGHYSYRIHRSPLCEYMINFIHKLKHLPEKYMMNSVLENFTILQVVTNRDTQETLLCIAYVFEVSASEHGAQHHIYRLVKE

Chain of TEAD2 (Q15562 whole entry): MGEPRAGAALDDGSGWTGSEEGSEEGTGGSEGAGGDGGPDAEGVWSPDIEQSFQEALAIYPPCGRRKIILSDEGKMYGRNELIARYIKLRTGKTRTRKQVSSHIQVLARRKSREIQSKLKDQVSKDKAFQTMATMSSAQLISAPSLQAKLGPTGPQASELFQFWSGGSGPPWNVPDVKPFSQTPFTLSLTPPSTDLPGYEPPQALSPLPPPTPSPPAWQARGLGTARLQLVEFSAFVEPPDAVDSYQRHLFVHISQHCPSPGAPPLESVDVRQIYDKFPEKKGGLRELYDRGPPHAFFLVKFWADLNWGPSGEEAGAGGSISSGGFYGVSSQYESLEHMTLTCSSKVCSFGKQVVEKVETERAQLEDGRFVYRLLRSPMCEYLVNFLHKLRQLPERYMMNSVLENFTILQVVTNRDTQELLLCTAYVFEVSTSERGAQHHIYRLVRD

**Q.** With O=C(Nc1ccccc1)N1CCN(C(=O)c2cccc(OCCC3CCCCC3)c2)CC1 [TM2, 4-(3-(2-cyclohexylethoxy)benzoyl)-N-phenylpiperazine-1-carboxamide] as the compound, how does the IC50 [1] read?
**A.** 156 nM

**Q.** And the IC50 [2]?
**A.** 38 nM
